In BigSolDB 2.1:

O=C(O)c1ccccc1
Settings	solubility (mole fraction)
in 2-butanone, 278.65 K	0.131
in 2-butanone, 284.29 K	0.148
in 2-butanone, 289.86 K	0.166
in 2-butanone, 295.54 K	0.186
in 2-butanone, 301.27 K	0.206
in 2-butanone, 307.1 K	0.229
in 2-butanone, 313.04 K	0.254
in 2-butanone, 319.06 K	0.281
in 2-butanone, 325.2 K	0.311
in MIBK, 276.45 K	0.11
in MIBK, 281.66 K	0.124
in MIBK, 287.16 K	0.139
in MIBK, 292.73 K	0.156
in MIBK, 298.25 K	0.175
in MIBK, 303.76 K	0.195
in MIBK, 309.36 K	0.217
in MIBK, 315.05 K	0.242
in MIBK, 320.74 K	0.264
in MIBK, 325.16 K	0.281
in ethyl acetate, 279.67 K	0.105
in ethyl acetate, 285.24 K	0.121
in ethyl acetate, 289.24 K	0.133
in ethyl acetate, 293.36 K	0.146
in ethyl acetate, 298.93 K	0.167
in ethyl acetate, 303.76 K	0.186
in ethyl acetate, 308.76 K	0.206
in ethyl acetate, 313.66 K	0.228
in ethyl acetate, 318.65 K	0.252
in ethyl acetate, 323.56 K	0.278
in ethyl acetate, 326.5 K	0.306
in isopropyl acetate, 276.27 K	0.0855
in isopropyl acetate, 283.74 K	0.105
in isopropyl acetate, 288.69 K	0.118
in isopropyl acetate, 293.67 K	0.134
in isopropyl acetate, 298.34 K	0.15
in isopropyl acetate, 303.36 K	0.168
in isopropyl acetate, 308.33 K	0.188
in isopropyl acetate, 313.25 K	0.209
in isopropyl acetate, 318.25 K	0.232
in isopropyl acetate, 324.02 K	0.26
in methanol, 278 K	0.111
in methanol, 285.5 K	0.129
in methanol, 292.23 K	0.145
in methanol, 298.99 K	0.164
in methanol, 304.78 K	0.18
in methanol, 312.56 K	0.204
in methanol, 319.32 K	0.227
in methanol, 323.49 K	0.241
in n-butanol, 276.92 K	0.116
in n-butanol, 281.92 K	0.13
in n-butanol, 291.77 K	0.16
in n-butanol, 296.56 K	0.176
in n-butanol, 301.56 K	0.194
in n-butanol, 311.66 K	0.234
in n-butanol, 316.79 K	0.256
in n-butanol, 321.9 K	0.279
in n-butanol, 327.3 K	0.306
in n-propanol, 279.06 K	0.119
in n-propanol, 284.15 K	0.133
in n-propanol, 289.26 K	0.148
in n-propanol, 294.47 K	0.164
in n-propanol, 299.65 K	0.182
in n-propanol, 304.75 K	0.2
in n-propanol, 310.06 K	0.221
in n-propanol, 315.41 K	0.242
in n-propanol, 320.77 K	0.266
in n-propanol, 326.16 K	0.291

CC(=O)Oc1ccccc1C(=O)O
Settings	solubility (mole fraction)
in MIBK, 277.46 K	0.0196
in MIBK, 281.76 K	0.023
in MIBK, 287.96 K	0.0283
in MIBK, 292.96 K	0.0331
in MIBK, 300.18 K	0.0414
in MIBK, 307.27 K	0.0511
in MIBK, 312.47 K	0.0594
in MIBK, 318.36 K	0.07
in MIBK, 327.95 K	0.0897
in ethyl acetate, 275.86 K	0.0154
in ethyl acetate, 283.66 K	0.0204
in ethyl acetate, 289.86 K	0.0254
in ethyl acetate, 296.16 K	0.0313
in ethyl acetate, 302.67 K	0.0384
in ethyl acetate, 308.68 K	0.0467
in ethyl acetate, 315.16 K	0.0564
in ethyl acetate, 321.37 K	0.0676
in ethyl acetate, 327.91 K	0.0807
in isobutanol, 276.36 K	0.0098
in isobutanol, 284.46 K	0.0151
in isobutanol, 289.27 K	0.0194
in isobutanol, 294.3 K	0.0247
in isobutanol, 299.16 K	0.0309
in isobutanol, 303.65 K	0.0383
in isobutanol, 308.26 K	0.0469
in isobutanol, 312.61 K	0.0567
in isobutanol, 316.87 K	0.0679
in isobutanol, 320.96 K	0.0807
in isobutanol, 322.96 K	0.0875
in isobutanol, 326.57 K	0.1
in isobutyl acetate, 277.86 K	0.0109
in isobutyl acetate, 281.16 K	0.0124
in isobutyl acetate, 287.78 K	0.0157
in isobutyl acetate, 293.97 K	0.0198
in isobutyl acetate, 300.25 K	0.0247
in isobutyl acetate, 307.15 K	0.0306
in isobutyl acetate, 313.56 K	0.0376
in isobutyl acetate, 320.16 K	0.046
in isobutyl acetate, 327.15 K	0.0559
in n-butanol, 277.66 K	0.0145
in n-butanol, 282.35 K	0.0183
in n-butanol, 287.35 K	0.0232
in n-butanol, 292.35 K	0.0291
in n-butanol, 297.37 K	0.036
in n-butanol, 301.66 K	0.044
in n-butanol, 306.16 K	0.0531
in n-butanol, 310.35 K	0.0635
in n-butanol, 314.64 K	0.0752
in n-butanol, 318.75 K	0.0883
in n-butanol, 323.44 K	0.103
in n-propanol, 276.36 K	0.0164
in n-propanol, 282.96 K	0.0227
in n-propanol, 288.16 K	0.0286
in n-propanol, 293.16 K	0.0354
in n-propanol, 297.85 K	0.0434
in n-propanol, 302.55 K	0.0527
in n-propanol, 307.06 K	0.0632
in n-propanol, 311.66 K	0.0752
in n-propanol, 316.06 K	0.0887
in n-propanol, 320.45 K	0.104
in n-propanol, 324.75 K	0.121
